Assay results published in ChEMBL document CHEMBL4229544, “Design, synthesis and antibacterial properties of pyrimido[4,5-b]indol-8-amine inhibitors of DNA gyrase” (Bioorg Med Chem Lett, 2018).
Converted amounts (≈) assume the structure as drawn.

Columns and labels:
Enterococcus faecalis [1] = assay: Antibacterial activity against Enterococcus faecalis ATCC 29212; type: functional
[2] = test system: Mycolicibacterium smegmatis; assay: Antibacterial activity against Mycobacterium smegmatis ATCC 19420; type: functional
Escherichia coli = assay: Antibacterial activity against Escherichia coli ATCC 25922; type: functional
[3] = test system: Mycobacterium tuberculosis; assay: Antibacterial activity against Mycobacterium tuberculosis H37Rv; type: functional
Staphylococcus aureus = assay: Antibacterial activity against Staphylococcus aureus ATCC 29213; type: functional
Acinetobacter baumannii = assay: Antibacterial activity against Acinetobacter baumannii NCTC 13420; type: functional
[4] = test system: Staphylococcus epidermidis; assay: Antibacterial activity against Staphylococcus epidermidis ATCC 12228; type: functional
Pseudomonas aeruginosa [5] = assay: Antibacterial activity against Pseudomonas aeruginosa ATCC 27853; type: functional
Haemophilus influenzae [6] = assay: Antibacterial activity against Haemophilus influenzae ATCC 49247; type: functional
Streptococcus pneumoniae [7] = assay: Antibacterial activity against Streptococcus pneumoniae ATCC 49619; type: functional
HepG2 = assay: Cytotoxicity against human HepG2 cells after 24 hrs by CellTiter-Glo assay; type: cell-based; conditions: HepG2, 24 h
[8] = target: T1, DNA gyrase subunit A/DNA gyrase subunit B (Mycobacterium tuberculosis (strain ATCC 25618 / H37Rv), UniProt P9WG45+P9WG47); assay: Inhibition of Mycobacterium tuberculosis DNA gyrase ATPase activity; type: protein-complex assay
T1 sequence (P9WG45 whole entry): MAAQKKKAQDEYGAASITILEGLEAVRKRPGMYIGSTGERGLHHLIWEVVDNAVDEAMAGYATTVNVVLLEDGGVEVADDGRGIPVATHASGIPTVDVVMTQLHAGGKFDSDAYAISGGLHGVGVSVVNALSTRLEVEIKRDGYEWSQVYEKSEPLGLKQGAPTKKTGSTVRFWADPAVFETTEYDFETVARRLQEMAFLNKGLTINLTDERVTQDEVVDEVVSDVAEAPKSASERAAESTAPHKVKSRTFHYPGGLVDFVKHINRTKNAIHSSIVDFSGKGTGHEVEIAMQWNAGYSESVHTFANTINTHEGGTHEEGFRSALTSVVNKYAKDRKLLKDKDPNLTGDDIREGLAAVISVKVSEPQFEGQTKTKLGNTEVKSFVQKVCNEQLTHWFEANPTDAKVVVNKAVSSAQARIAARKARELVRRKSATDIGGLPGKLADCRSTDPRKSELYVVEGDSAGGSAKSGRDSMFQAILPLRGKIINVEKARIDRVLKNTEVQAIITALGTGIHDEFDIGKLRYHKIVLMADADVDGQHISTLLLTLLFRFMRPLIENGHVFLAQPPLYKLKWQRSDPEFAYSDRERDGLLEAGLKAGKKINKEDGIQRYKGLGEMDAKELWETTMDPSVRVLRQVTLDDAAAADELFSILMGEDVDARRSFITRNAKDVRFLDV
T1 sequence (P9WG47 whole entry): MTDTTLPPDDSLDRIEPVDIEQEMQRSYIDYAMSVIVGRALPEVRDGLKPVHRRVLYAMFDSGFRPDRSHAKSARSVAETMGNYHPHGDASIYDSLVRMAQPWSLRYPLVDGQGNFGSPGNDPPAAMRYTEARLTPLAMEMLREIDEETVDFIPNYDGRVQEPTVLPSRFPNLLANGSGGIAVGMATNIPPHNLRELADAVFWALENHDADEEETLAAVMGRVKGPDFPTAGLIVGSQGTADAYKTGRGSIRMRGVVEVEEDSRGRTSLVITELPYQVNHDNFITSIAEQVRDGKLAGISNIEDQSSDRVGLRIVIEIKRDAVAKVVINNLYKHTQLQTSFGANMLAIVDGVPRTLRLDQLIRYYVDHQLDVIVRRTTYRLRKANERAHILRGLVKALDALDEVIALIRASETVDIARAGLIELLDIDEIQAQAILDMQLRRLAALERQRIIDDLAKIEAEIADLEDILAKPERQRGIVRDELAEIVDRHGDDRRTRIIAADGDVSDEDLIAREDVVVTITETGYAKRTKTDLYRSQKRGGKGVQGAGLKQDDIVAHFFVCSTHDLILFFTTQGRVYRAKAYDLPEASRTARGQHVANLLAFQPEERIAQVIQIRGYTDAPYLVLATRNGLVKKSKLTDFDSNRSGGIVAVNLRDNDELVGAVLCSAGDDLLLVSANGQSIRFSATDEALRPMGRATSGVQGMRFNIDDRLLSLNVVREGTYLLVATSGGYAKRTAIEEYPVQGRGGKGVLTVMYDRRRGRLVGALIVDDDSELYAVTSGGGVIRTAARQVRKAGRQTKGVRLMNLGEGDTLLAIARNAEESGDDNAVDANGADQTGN

[9] = target: T1, DNA gyrase subunit A/DNA gyrase subunit B; assay: Inhibition of Mycobacterium tuberculosis DNA gyrase activity; type: protein-complex assay
Homo sapiens = organism: Homo sapiens; assay: Inhibition of human topoisomerase-2-mediated decatenation at 100 uM relative to control
[10] = test system: Mycobacterium tuberculosis; assay: Antibacterial activity against Mycobacterium tuberculosis H37Rv measured after 5 days by resazurin-dye based microplate assay; type: functional; conditions: 120 h
[11] = test system: Staphylococcus epidermidis; assay: Antibacterial activity against Staphylococcus epidermidis ATCC 12228 by agar dilution method; type: functional
Streptococcus pneumoniae [12] = assay: Antibacterial activity against Streptococcus pneumoniae ATCC 49619 by agar dilution method; type: functional
Pseudomonas aeruginosa [13] = assay: Antibacterial activity against Pseudomonas aeruginosa ATCC 27853 by agar dilution method; type: functional
Enterococcus faecalis [14] = assay: Antibacterial activity against Enterococcus faecalis ATCC 29212 by agar dilution method; type: functional
Haemophilus influenzae [15] = assay: Antibacterial activity against Haemophilus influenzae ATCC 49247 by agar dilution method; type: functional

Structure (SMILES)	MIC (Enterococcus faecalis [1])	MIC [2]	MIC (Escherichia coli)	MIC [3]	MIC (Staphylococcus aureus)	other results
CNc1cc(F)cc2c1[nH]c1nc(CNC(=O)c3ocnc3C)nc(N3CCC(N(C)C)C3)c12 (centres undefined)	0.03 µg/mL (≈ 0.0643 µM)	0.06 µg/mL (≈ 0.129 µM)	2 µg/mL (≈ 4.29 µM)	0.06 µg/mL (≈ 0.129 µM)	1 µg/mL (≈ 2.14 µM)	
COc1c(N2C[C@@H]3CCCN[C@@H]3C2)c(F)cc2c(=O)c(C(=O)O)cn(C3CC3)c12 [MOXIFLOXACIN]		0.03 µg/mL (≈ 0.0747 µM)				
CNc1cc(F)cc2c1[nH]c1nc(CN)nc(N3CCC(N)C3)c12 (centres undefined)	8 µg/mL (≈ 24.3 µM)		8 µg/mL (≈ 24.3 µM)		8 µg/mL (≈ 24.3 µM)	
CNc1cc(F)cc2c1[nH]c1nc(CNC(=O)c3cnco3)nc(N3CCC(CN)C3)c12 (centres undefined)	0.12 µg/mL (≈ 0.274 µM)	0.06 µg/mL (≈ 0.137 µM)	4 µg/mL (≈ 9.12 µM)	0.03 µg/mL (≈ 0.0684 µM)	4 µg/mL (≈ 9.12 µM)	
CNc1cc(F)cc2c1[nH]c1nc(CNC(=O)c3cnco3)nc(N3CCC(NC)C3)c12 (centres undefined)	0.5 µg/mL (≈ 1.14 µM)	0.5 µg/mL (≈ 1.14 µM)	4 µg/mL (≈ 9.12 µM)	0.03 µg/mL (≈ 0.0684 µM)	8 µg/mL (≈ 18.2 µM)	MIC (Acinetobacter baumannii): > 64 µg/mL; MIC [4]: 2 µg/mL (≈ 4.56 µM); MIC (Pseudomonas aeruginosa [5]): > 64 µg/mL; MIC (Haemophilus influenzae [6]): 4 µg/mL (≈ 9.12 µM); MIC (Streptococcus pneumoniae [7]): 2 µg/mL (≈ 4.56 µM); IC50 (HepG2): > 32 µg/mL
CNc1cc(F)cc2c1[nH]c1nc(CNC(=O)c3cnco3)nc(N3CCC(N(C)C)C3)c12 (centres undefined)	0.015 µg/mL (≈ 0.0331 µM)	0.06 µg/mL (≈ 0.133 µM)	0.25 µg/mL (≈ 0.552 µM)	0.06 µg/mL (≈ 0.133 µM)	0.5 µg/mL (≈ 1.1 µM)	MIC (Acinetobacter baumannii): 1 µg/mL (≈ 2.21 µM); MIC [4]: 0.12 µg/mL (≈ 0.265 µM); MIC (Pseudomonas aeruginosa [5]): > 64 µg/mL; MIC (Haemophilus influenzae [6]): 4 µg/mL (≈ 8.84 µM); MIC (Streptococcus pneumoniae [7]): 0.12 µg/mL (≈ 0.265 µM); IC50 (HepG2): > 16 µg/mL
CNc1cc(F)cc2c1[nH]c1nc(CNC(=O)c3ocnc3C)nc(N3CCC(NC)C3)c12 (centres undefined)	0.25 µg/mL (≈ 0.552 µM)	0.06 µg/mL (≈ 0.133 µM)	4 µg/mL (≈ 8.84 µM)	0.03 µg/mL (≈ 0.0663 µM)	4 µg/mL (≈ 8.84 µM)	
CNc1cc(F)cc2c1[nH]c1nc(CNC(=O)c3cccc(C(=O)OC)n3)nc(N3CCC(CN)C3)c12 (centres undefined)	1 µg/mL (≈ 1.97 µM)	0.06 µg/mL (≈ 0.118 µM)	32 µg/mL (≈ 63.2 µM)		8 µg/mL (≈ 15.8 µM)	
CNc1cc(F)cc2c1[nH]c1nc(CNC(=O)c3cnc(C)o3)nc(N3CCC(N(C)C)C3)c12 (centres undefined)	0.015 µg/mL (≈ 0.0322 µM)	0.002 µg/mL (≈ 0.00429 µM)	1 µg/mL (≈ 2.14 µM)		1 µg/mL (≈ 2.14 µM)	
CNc1cc(F)cc2c1[nH]c1nc(CNC(=O)c3cccnc3)nc(N3CCC(N)C3)c12 (centres undefined)	0.25 µg/mL (≈ 0.575 µM)		8 µg/mL (≈ 18.4 µM)		32 µg/mL (≈ 73.7 µM)	
CNc1cc(F)cc2c1[nH]c1nc(CNC(=O)c3ccc4cc[nH]c4n3)nc(N3CCC(N(C)C)C3)c12 (centres undefined)	0.5 µg/mL (≈ 0.997 µM)	0.25 µg/mL (≈ 0.498 µM)	4 µg/mL (≈ 7.97 µM)	0.25 µg/mL (≈ 0.498 µM)	1 µg/mL (≈ 1.99 µM)	
CNc1cc(F)cc2c1[nH]c1nc(CNC(=O)c3cccnn3)nc(N3CCC(N)C3)c12 (centres undefined)	0.12 µg/mL (≈ 0.276 µM)		4 µg/mL (≈ 9.19 µM)		8 µg/mL (≈ 18.4 µM)	
CNc1cc(F)cc2c1[nH]c1nc(CNC(=O)c3cocn3)nc(N3CCC(N)C3)c12 (centres undefined)	0.06 µg/mL (≈ 0.141 µM)	0.12 µg/mL (≈ 0.283 µM)	128 µg/mL (≈ 302 µM)		8 µg/mL (≈ 18.8 µM)	MIC (Acinetobacter baumannii): 16 µg/mL (≈ 37.7 µM); IC50 [8]: 25 nM; MIC [4]: 1 µg/mL (≈ 2.36 µM); IC50 [9]: 5 nM; MIC (Pseudomonas aeruginosa [5]): 128 µg/mL (≈ 302 µM); MIC (Haemophilus influenzae [6]): 1 µg/mL (≈ 2.36 µM); MIC (Streptococcus pneumoniae [7]): 0.12 µg/mL (≈ 0.283 µM); IC50 (HepG2): 10.8 µg/mL (≈ 25.5 µM); inhibition (Homo sapiens): 5.8%
CNc1cc(F)cc2c1[nH]c1nc(CNC(=O)c3cnco3)nc(N3CCC(N)C3)c12 (centres undefined)	1 µg/mL (≈ 2.36 µM)	0.25 µg/mL (≈ 0.589 µM)	4 µg/mL (≈ 9.42 µM)	0.25 µg/mL (≈ 0.589 µM)	8 µg/mL (≈ 18.8 µM)	MIC (Acinetobacter baumannii): 8 µg/mL (≈ 18.8 µM); IC50 [8]: 59 nM; MIC [4]: 1 µg/mL (≈ 2.36 µM); IC50 [9]: 10 nM; MIC (Pseudomonas aeruginosa [5]): 32 µg/mL (≈ 75.4 µM); MIC (Haemophilus influenzae [6]): 1 µg/mL (≈ 2.36 µM); MIC (Streptococcus pneumoniae [7]): 1 µg/mL (≈ 2.36 µM); IC50 (HepG2): > 16 µg/mL; inhibition (Homo sapiens): 21.2%
CO[C@H]1/C=C/O[C@@]2(C)Oc3c(C)c(O)c4c(O)c(c(/C=N/N5CCN(C)CC5)c(O)c4c3C2=O)NC(=O)/C(C)=C\C=C\[C@H](C)[C@H](O)[C@@H](C)[C@@H](O)[C@@H](C)[C@H](OC(C)=O)[C@@H]1C [RIFAMPIN]		16 µg/mL (≈ 19.4 µM)				
CNc1cc(F)cc2c1[nH]c1nc(CNC(=O)c3ccco3)nc(N3CCC(N(C)C)C3)c12 (centres undefined)	0.12 µg/mL (≈ 0.266 µM)	0.06 µg/mL (≈ 0.133 µM)	0.5 µg/mL (≈ 1.11 µM)	0.03 µg/mL (≈ 0.0664 µM)	0.25 µg/mL (≈ 0.554 µM)	
CNc1cc(F)cc2c1[nH]c1nc(CNC(=O)c3ocnc3C)nc(N3CCC(CN)C3)c12 (centres undefined)	0.5 µg/mL (≈ 1.1 µM)	0.03 µg/mL (≈ 0.0663 µM)	8 µg/mL (≈ 17.7 µM)	0.015 µg/mL (≈ 0.0331 µM)	8 µg/mL (≈ 17.7 µM)	
NNC(=O)c1ccncc1 [ISONIAZID]		4 µg/mL (≈ 29.2 µM)				
CNc1cc(F)cc2c1[nH]c1nc(CNC(=O)c3cnc(C)o3)nc(N3CCC(CN)C3)c12 (centres undefined)	0.25 µg/mL (≈ 0.552 µM)	0.12 µg/mL (≈ 0.265 µM)	4 µg/mL (≈ 8.84 µM)	0.015 µg/mL (≈ 0.0331 µM)	8 µg/mL (≈ 17.7 µM)	
CO[C@@H]1[C@@H](OC(N)=O)[C@@H](O)[C@H](Oc2ccc3c(O)c(NC(=O)c4ccc(O)c(CC=C(C)C)c4)c(=O)oc3c2C)OC1(C)C [NOVOBIOCIN]		1 µg/mL (≈ 1.63 µM)	> 64 µg/mL		0.06 µg/mL (≈ 0.0979 µM)	MIC [10]: 4 µg/mL (≈ 6.53 µM); MIC [11]: 0.06 µg/mL (≈ 0.0979 µM); MIC (Streptococcus pneumoniae [12]): 0.5 µg/mL (≈ 0.816 µM); MIC (Pseudomonas aeruginosa [13]): > 64 µg/mL; MIC (Enterococcus faecalis [14]): 4 µg/mL (≈ 6.53 µM); IC50 (HepG2): > 32 µg/mL; MIC (Haemophilus influenzae [15]): 0.5 µg/mL (≈ 0.816 µM)
CNc1cc(F)cc2c1[nH]c1nc(CNC(=O)c3cocn3)nc(N3CCC(NC)C3)c12 (centres undefined)	0.25 µg/mL (≈ 0.57 µM)	0.5 µg/mL (≈ 1.14 µM)	16 µg/mL (≈ 36.5 µM)	0.12 µg/mL (≈ 0.274 µM)	16 µg/mL (≈ 36.5 µM)	
